Experimental data as given in patent publication US20070128217A1 (priority 2003, published 2007).

Assays:
[1] = tested on: antibodies in sera from SARS patients (sera 1a, 1b, 2, 6, 37, 62, London, SARS-yellow, SARS-green); type: binding, human; parameters: Binding of serum 6 to linear peptides of protein X1 of SARS-CoV Urbani / Binding of serum 37 to linear peptides of protein X1 of SARS-CoV Urbani / Binding of serum 6 to looped/cyclic peptide (PEPSCAN-ELISA) / Binding of serum 37 to looped/cyclic peptide (PEPSCAN-ELISA) / Binding of serum 37 to looped/cyclic peptides of protein X1 of SARS-CoV Urbani / Binding of serum 6 to linear peptides of protein X2 / Binding of serum 37 to linear peptides of protein X2 / Binding of serum 37 to looped/cyclic peptides of protein X2 of SARS-CoV Urbani / Binding of serum 6 to linear peptides of protein M of SARS-CoV Urbani / Binding of serum 37 to linear peptides of protein M of SARS-CoV Urbani / Binding of serum 6 to looped/cyclic peptides of protein M of SARS-CoV Urbani / Binding of serum 37 to looped/cyclic peptides of protein M of SARS-CoV Urbani / Binding of serum 6 to linear peptides of protein X3 of SARS-CoV Urbani / Binding of serum 37 to linear peptides of protein X3 of SARS-CoV Urbani / Binding of serum 37 to looped/cyclic peptides of protein X3 of SARS-CoV Urbani / Binding of serum 6 to linear peptides of protein X4 of SARS-CoV Urbani / Binding of serum 37 to linear peptides of protein X4 of SARS-CoV Urbani / Binding of serum 37 to looped/cyclic peptides of protein X4 of SARS-CoV Urbani / Binding of serum 6 to linear peptides of protein X5 of SARS-CoV Urbani / Binding of serum 37 to linear peptides of protein X5 of SARS-CoV Urbani / Binding of serum 37 to looped/cyclic peptides of protein X5 of SARS-CoV Urbani / Binding of serum 6 to linear peptides of protein N of SARS-CoV Urbani / Binding of serum 37 to linear peptides of protein N of SARS-CoV Urbani / Binding of serum 6 to linear peptide (PEPSCAN-ELISA) / Binding of serum 1a to looped/cyclic peptides of protein N of SARS-CoV Urbani / Binding of serum 1b to looped/cyclic peptides of protein N of SARS-CoV Urbani / Binding of serum 2 to looped/cyclic peptides of protein N of SARS-CoV Urbani / Binding of serum 6 to looped/cyclic peptides of protein N of SARS-CoV Urbani / Binding of serum 37 to looped/cyclic peptides of protein N of SARS-CoV Urbani / Binding of serum 62 to looped/cyclic peptides of protein N of SARS-CoV Urbani / Binding of serum London to looped/cyclic peptides of protein N of SARS-CoV Urbani / Binding of serum SARS-green to looped/cyclic peptides of protein N of SARS-CoV Urbani: unit not given here
[2] = tested on: control sera (pooled serum of ten healthy LUMC hospital workers; commercial negative donor pooled serum from the Dutch bloodbank); type: binding, human; parameters: Binding of Control serum LUMC to linear peptides / Binding of Control serum Blood-bank to linear peptides / Binding of Control serum LUMC to looped peptides / Binding of Control Serum Blood-Bank to Looped peptides / Binding of Control serum LUMC to linear peptides of the protein M of SARS-CoV Urbani / Binding of Control serum Blood-bank to linear peptides of the protein M of SARS-CoV Urbani / Binding of Control serum LUMC to looped peptides of the protein M of SARS-CoV Urbani / Binding of Control Serum Blood-Bank to Looped peptides of the protein M of SARS-CoV Urbani: unit not given here
[3] = tested on: rabbit serum obtained by immunizing a rabbit with the SARS-CoV strain Frankfurt 1; type: binding; parameters: Binding of a rabbit serum to linear peptides / Binding of a rabbit serum to looped peptides / Rabbit serum linear peptides / Rabbit serum looped peptides / Binding of a rabbit serum to linear peptides of protein N of SARS-CoV Urbani (Rabbit serum linear peptides) / Binding of a rabbit serum to looped/cyclic peptides of protein N of SARS-CoV Urbani (Rabbit serum looped peptides): unit not given here
[4] = tested on: recombinant human anti-SARS-CoV antibody 03-018; type: binding; parameters: Binding of antibody 03-018 to linear peptides of the N protein of SARS-CoV Urbani / Binding of antibody 03-018 to looped/cyclic peptides of the N protein of SARS-CoV Urbani: unit not given here

Sequence | Binding of serum 1a to linear peptides of protein N of SARS-CoV Urbani [1] | Binding of serum 1a to looped/cyclic peptides of protein N of SARS-CoV Urbani [1] | Binding of serum 1b to linear peptides of protein N of SARS-CoV Urbani [1] | Binding of serum 1b to looped/cyclic peptides of protein N of SARS-CoV Urbani [1] | Binding of serum 2 to linear peptides of protein N of SARS-CoV Urbani [1] | Binding of serum 2 to looped/cyclic peptides of protein N of SARS-CoV Urbani [1] | Binding of serum 6 to linear peptides of protein N of SARS-CoV Urbani [1] | Binding of serum 6 to looped/cyclic peptides of protein N of SARS-CoV Urbani [1] | Binding of serum 37 to linear peptides of protein N of SARS-CoV Urbani [1] | Binding of serum 37 to looped/cyclic peptides of protein N of SARS-CoV Urbani [1] | Binding of serum 62 to linear peptides of protein N of SARS-CoV Urbani [1] | Binding of serum 62 to looped/cyclic peptides of protein N of SARS-CoV Urbani [1] | Binding of serum London to linear peptides of protein N of SARS-CoV Urbani [1] | Binding of serum London to looped/cyclic peptides of protein N of SARS-CoV Urbani [1] | Binding of serum SARS-green to linear peptides of protein N of SARS-CoV Urbani [1] | Binding of serum SARS-yellow to linear peptides of protein N of SARS-CoV Urbani [1] | Binding of a rabbit serum to linear peptides of protein N of SARS-CoV Urbani (Rabbit serum linear peptides) [3] | Binding of a rabbit serum to looped/cyclic peptides of protein N of SARS-CoV Urbani (Rabbit serum looped peptides) [3] | Binding of antibody 03-018 to linear peptides of the N protein of SARS-CoV Urbani [4] | Binding of antibody 03-018 to looped/cyclic peptides of the N protein of SARS-CoV Urbani [4] | also measured
LLNKHIDAYKTFPPT | 0.2 | 0.3 | 0.1 | 0.1 | 0.2 | 0.3 | 0.2 | 0.2 | 0.7 | 0.4 | 0.6 | 0.3 | 0.5 | 0.3 | 0.5 | 0.6 | 0.2 | 0.4 | 0.1 | 0.2 | Binding of serum SARS-green to looped/cyclic peptides of protein N of SARS-CoV Urbani [1]: 0.3; Binding of serum SARS-yellow to looped/cyclic peptides of protein N of SARS-CoV Urbani [1]: 0.4; Control Serum Blood-Bank Looped peptides [2]: 0.5; Control serum Blood-bank linear peptides [2]: 0.6; Control serum LUMC linear peptides [2]: 0.7; Control serum LUMC looped peptides [2]: 0.5
LPQRQKKQPTVTLLP | 0.2 | – | 0.2 | – | 0.3 | – | 0.1 | – | 0.7 | – | 0.7 | – | 0.5 | – | 0.4 | 0.7 | 0.2 | 0.7 | 0.1 | 0.3 | Recognition of the peptide by sera of SARS-CoV infected individuals, and form (linear, looped/cyclic) in which it is recognized [1]: recognized in looped/cyclic form; Control Serum Blood-Bank Looped peptides [2]: 0.8; Control serum Blood-bank linear peptides [2]: 0.8; Control serum LUMC linear peptides [2]: 0.7; Control serum LUMC looped peptides [2]: 0.7
LPYGANKEGIVWVAT | 0.2 | 0.5 | 0.2 | 0.3 | 0.3 | 0.6 | 0.2 | 0.4 | 0.7 | 0.9 | 0.7 | 0.8 | 0.5 | 0.5 | 0.3 | 0.6 | 0.2 | 0.6 | 0.1 | 0.2 | Binding of serum SARS-green to looped/cyclic peptides of protein N of SARS-CoV Urbani [1]: 0.4; Binding of serum SARS-yellow to looped/cyclic peptides of protein N of SARS-CoV Urbani [1]: 0.4; Binding of Control Serum Blood-Bank to Looped peptides [2]: 0.5; Binding of Control serum Blood-bank to linear peptides [2]: 0.7; Binding of Control serum LUMC to linear peptides [2]: 0.6; Binding of Control serum LUMC to looped peptides [2]: 0.6
LTQHGKEELRFPRGQ | 0.2 | 0.4 | 0.1 | 0.2 | 0.3 | 0.4 | 0.2 | 0.3 | 0.6 | 0.6 | 0.7 | 0.4 | 0.4 | 0.4 | 0.3 | 0.6 | 0.1 | 0.4 | 0.1 | 0.2 | Binding of serum SARS-green to looped/cyclic peptides of protein N of SARS-CoV Urbani [1]: 0.3; Binding of serum SARS-yellow to looped/cyclic peptides of protein N of SARS-CoV Urbani [1]: 0.4; Binding of Control Serum Blood-Bank to Looped peptides [2]: 0.6; Binding of Control serum Blood-bank to linear peptides [2]: 0.8; Binding of Control serum LUMC to linear peptides [2]: 0.6; Binding of Control serum LUMC to looped peptides [2]: 0.6
